# Assays:
# [1] = 25° C., RP-HPLC, Ac-X-G-A-K-G-A-G-V-G L-amide; cited from earlier work
# [2] = pH 7 (No salt); cited from earlier work
# [3] = In-vivo distribution assay (intrarectal, colon cryosections, epifluorescence); design: species or system BALB/c female mice; settings: peptide-coupled DiI/DiO lipid nanoparticle, 30 μg DNA intrarectally, colon after 4 hours, compared to base lipid nanoparticle
# Experimental: Three separate lipid nanoparticle formulations were prepared, one coupled to SEQ ID NO: 29, another coupled to transactivator of transcription peptide (TAT; SEQ ID NO:37) and the last without any coupling, all carried plasmid DNA and included 0.5% mol DiI and DiO labeling. 30 μg of DNA encapsulated in the DiI/DiO lipid nanoparticle are dosed intrarectally in BALB/c female mice (Charles River Laboratory, MA) anesthetized under 1-3% isofluorane. After 4 hours, the mice are euthanized under 25% CO2 and the colon is removed and embedded in optimal cutting temperature (OCT) media. The OCT media sections are flash frozen at −80 degrees Celsius and intestinal sections are taken in a cryostat. Epifluorescence images are taken of crypts under 531 nm excitation with 593 nm emission and overlaid with brightfield illumination. FIGS. 32A-32B.
# [4] = molecular target: T1, Poliovirus Receptor (Homo sapiens, UniProt P15151); settings: cited from earlier work
# T1 sequence (P15151 21-417): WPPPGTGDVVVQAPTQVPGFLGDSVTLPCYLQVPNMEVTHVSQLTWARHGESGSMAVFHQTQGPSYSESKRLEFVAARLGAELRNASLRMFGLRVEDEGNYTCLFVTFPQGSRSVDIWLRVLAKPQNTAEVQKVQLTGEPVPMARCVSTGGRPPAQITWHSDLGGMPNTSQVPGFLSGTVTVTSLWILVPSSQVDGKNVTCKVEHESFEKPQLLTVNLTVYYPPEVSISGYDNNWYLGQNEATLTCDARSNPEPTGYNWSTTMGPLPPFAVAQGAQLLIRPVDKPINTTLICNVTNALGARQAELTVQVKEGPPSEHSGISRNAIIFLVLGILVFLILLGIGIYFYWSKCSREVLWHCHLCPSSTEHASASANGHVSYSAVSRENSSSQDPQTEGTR
Compound,"ΔtR(Gly), pH 2, 20 mM H3PO4 [1]","ΔtR(Gly), pH 2, 20 mM TFA [1]","ΔtR(Gly), pH 5, 10 mM PO4 Buffer [1]","ΔtR(Gly), pH 7, 10 mM PO4 Buffer +50 mM NaCl [1]","ΔtR(Gly), pH 7, 10 mM PO4 Buffer +50 mM NaClO4 [1]","ΔtR(Gly), pH 7, 10 mM PO4 Buffer, No Salt [1]",Fauchere Score [2],distribution of the particle at the surface of the intestinal epithelial cells [3],interaction with the Poliovirus Receptor [4]
N[C@@H](Cc1c[nH]cn1)C(=O)O [His],−7.0,0.0,−5.1,4.7,3.4,3.4,0.130,–,–
N[C@@H](CCC(=O)O)C(=O)O [Glu],3.6,2.8,−0.5,−0.4,−7.1,−0.9,−0.640,–,–
C[C@@H](O)[C@H](N)C(=O)O [Thr],2.8,2.3,2.8,4.1,2.5,3.9,0.260,–,–
O=C(O)[C@@H]1CCCN1 [Pro],9.4,9.0,9.4,10.4,9.9,9.7,0.720,–,–
GRKKRRQRRRPQ (Human immunodeficiency virus) [SEQ ID NO. 37],–,–,–,–,–,–,–,reduced the distribution of the particle at the surface of the intestinal epithelial cells,–
N=C(N)NCCC[C@H](N)C(=O)O [Arg],−5.0,0.6,−3.7,4.1,6.4,3.9,−1.010,–,–
CC(C)C[C@H](N)C(=O)O [Leu],23.4,23.3,24.1,24.6,25.1,24.2,1.7,–,–
TVDNPASTTNKDKLFAV [SEQ ID NO. 28],–,–,–,–,–,–,–,–,has been shown to interact with the Poliovirus Receptor

# — patent US20210177982A1, “MUCUS-PENETRATING PEPTIDES, DELIVERY VEHICLES AND METHODS OF THERAPY” (DNALite Therapeutics, Inc., priority 2018, published 2021)
